Experimental data taken from PubChem BioAssay AID216 (DTP/NCI, 2004).
Several values for one entry are separate records, joined by “and”; a condition that tells them apart may be missing. Identical values can stand only once. Toxic doses and inconclusive results are not listed.

Test system: BDF1 mice, P288 leukemia ip, survival T/C
Test: NCI In Vivo Anticancer Drug Screen. Data for tumor model P288 Lymphocytic Leukemia (intraperitoneal) in B6D2F1 (BDF1) mice
Conditions: endpoint: survival time, mean or median, higher = longer survival
Description: The antitumor activity of compounds was measured in mice bearing transplantable tumors. Survival or tumor size were measured and the results are expressed as the measurement made in the treated group (T) divided by the measurement made in the vehicle treated control group (C). The tumor model used in this assay is P288 Lymphocytic Leukemia (intraperitoneal) in B6D2F1 (BDF1) mice

[1] = dose: 25.0 mg/kg/injection, schedule: Q01DX010 (ip), vehicle: saline
[2] = dose: 100.0 mg/kg/injection, schedule: Q01DX010 (ip), vehicle: saline
[3] = dose: 200.0 mg/kg/injection, schedule: Q01DX010 (ip), vehicle: saline
[4] = dose: 62.5 mg/kg/injection, schedule: Q01DX010 (ip), vehicle: saline
[5] = dose: 62.5 mg/kg/injection, schedule: Q01DX Z (ip), vehicle: carboxymethylcellulose (CMC)
[6] = dose: 125.0 mg/kg/injection, schedule: Q01DX010 (ip), vehicle: saline
[7] = dose: 125.0 mg/kg/injection, schedule: Q01DX Z (ip), vehicle: carboxymethylcellulose (CMC)
[8] = dose: 250.0 mg/kg/injection, schedule: Q01DX010 (ip), vehicle: saline
[9] = dose: 250.0 mg/kg/injection, schedule: Q01DX Z (ip), vehicle: carboxymethylcellulose (CMC)
[10] = dose: 500.0 mg/kg/injection, schedule: Q01DX010 (ip), vehicle: saline
[11] = dose: 500.0 mg/kg/injection, schedule: Q01DX Z (ip), vehicle: carboxymethylcellulose (CMC)
[12] = dose: 30.0 mg/kg/injection, schedule: Q01DX010 (ip), vehicle: saline
[13] = dose: 60.0 mg/kg/injection, schedule: Q01DX010 (ip), vehicle: saline
[14] = dose: 12.5 mg/kg/injection, schedule: Q01DX Z (ip), vehicle: carboxymethylcellulose (CMC)

In the case of `COc1cc(-c2ccc(Nc3ccccc3C(=O)O)c(OC)c2)ccc1Nc1ccccc1C(=O)O`, the T/C [1] is reported as 116 % of control, the T/C [2] is reported as 155 % of control and the T/C [3] is reported as 161 % of control.

With `Nc1ncnc2c1ncn2C1OC(COCc2ccccc2)C(OCc2ccccc2)C1OCc1ccccc1` (centres undefined) the T/C (dose: 10.0 mg/kg/injection, schedule: Q01DX010 (ip), vehicle: saline) was 94 % of control and 100 % of control, the T/C (dose: 20.0 mg/kg/injection, schedule: Q01DX010 (ip), vehicle: saline) was 111 % of control and 94 % of control and the T/C (dose: 40.0 mg/kg/injection, schedule: Q01DX010 (ip), vehicle: saline) was 105 % of control and 100 % of control. The T/C (dose: 80.0 mg/kg/injection, schedule: Q01DX010 (ip), vehicle: saline) was 94 % of control.

With `Clc1ccc(C(c2ccccc2Cl)C(Cl)Cl)cc1` (centres undefined) the T/C (dose: 25.0 mg/kg/injection, schedule: Q01DX Z (sc), vehicle: steriod suspending solution) was 100 % of control, the T/C (dose: 50.0 mg/kg/injection, schedule: Q01DX Z (sc), vehicle: steriod suspending solution) was 122 % of control and the T/C (dose: 100.0 mg/kg/injection, schedule: Q01DX Z (sc), vehicle: steriod suspending solution) was 107 % of control. For the same compound, the T/C (dose: 200.0 mg/kg/injection, schedule: Q01DX Z (sc), vehicle: steriod suspending solution) was 86 % of control and 100 % of control and the T/C (dose: 400.0 mg/kg/injection, schedule: Q01DX Z (sc), vehicle: steriod suspending solution) was 101 % of control.

`O=CN(O)CC(=O)O` was tested, and the T/C (dose: 31.25 mg/kg/injection, schedule: Q01DX Z (ip), vehicle: carboxymethylcellulose (CMC)) was 110 % of control, the T/C [4] was 100 % of control and the T/C [5] was 104 % of control. For the same compound, the T/C [6] was 100 % of control, the T/C [7] was 100 % of control and the T/C [8] was 100 % of control. The T/C [9] was 110 % of control, the T/C [10] was 88 % of control and the T/C [11] was 106 % of control and 115 % of control. For the same compound, the T/C (dose: 1000.0 mg/kg/injection, schedule: Q01DX Z (ip), vehicle: carboxymethylcellulose (CMC)) was 100 % of control.

In the case of `Nc1c(I)cc(I)cc1C(=O)O`, the T/C [1] is reported as 100 % of control, the T/C (dose: 50.0 mg/kg/injection, schedule: Q01DX010 (ip), vehicle: saline) is reported as 112 % of control and 100 % of control and the T/C [2] is reported as 112 % of control and 100 % of control. The T/C [3] was 100 % of control and the T/C (dose: 400.0 mg/kg/injection, schedule: Q01DX010 (ip), vehicle: saline) was 106 % of control.

For `OCC1OC(n2cnc3c(Cl)ncnc32)C(O)C1O` (centres undefined), the T/C [5] was 104 % of control, the T/C [7] was 101 % of control and the T/C [9] was 92 % of control. For the same compound, the T/C [11] was 106 % of control.

With `CN(C)CC(=O)c1ccc(O)c(O)c1` the T/C (dose: 8.0 mg/kg/injection, schedule: Q01DX Z (ip), vehicle: saline) was 94 % of control, the T/C (dose: 16.0 mg/kg/injection, schedule: Q01DX Z (ip), vehicle: saline) was 105 % of control and the T/C (dose: 500.0 mg/kg/injection, schedule: Q01DX Z (ip), vehicle: saline) was 152 % of control. For the same compound, the T/C (dose: 675.0 mg/kg/injection, schedule: Q01DX010 (ip), vehicle: saline) was 150 % of control.

With `c1ccc(CCSc2ncnc3nc[nH]c23)cc1` the T/C [4] was 100 % of control, the T/C [6] was 100 % of control and the T/C [8] was 122 % of control and 100 % of control. For the same compound, the T/C [10] was 105 % of control and 122 % of control.

For `CC/C(=C(/CC)c1ccc(O)cc1)c1ccc(O)cc1`, the T/C (dose: 1.0 mg/kg/injection, schedule: Q01DX Z (sc), vehicle: steriod suspending solution) was 100 % of control, the T/C (dose: 2.0 mg/kg/injection, schedule: Q01DX Z (sc), vehicle: steriod suspending solution) was 103 % of control and the T/C (dose: 4.0 mg/kg/injection, schedule: Q01DX Z (sc), vehicle: steriod suspending solution) was 97 % of control. The T/C (dose: 8.0 mg/kg/injection, schedule: Q01DX Z (sc), vehicle: steriod suspending solution) was 118 % of control, the T/C (dose: 12.5 mg/kg/injection, schedule: Q01DX010 (sc), vehicle: steriod suspending solution) was 100 % of control and the T/C (dose: 16.0 mg/kg/injection, schedule: Q01DX Z (sc), vehicle: steriod suspending solution) was 118 % of control. The T/C (dose: 25.0 mg/kg/injection, schedule: Q01DX010 (sc), vehicle: steriod suspending solution) was 106 % of control, the T/C (dose: 31.0 mg/kg/injection, schedule: Q01DX Z (sc), vehicle: steriod suspending solution) was 103 % of control and the T/C (dose: 50.0 mg/kg/injection, schedule: Q01DX010 (sc), vehicle: steriod suspending solution) was 112 % of control and 121 % of control. For the same compound, the T/C (dose: 62.0 mg/kg/injection, schedule: Q01DX Z (sc), vehicle: steriod suspending solution) was 97 % of control, the T/C (dose: 100.0 mg/kg/injection, schedule: Q01DX010 (sc), vehicle: steriod suspending solution) was 114 % of control and 100 % of control and the T/C (dose: 125.0 mg/kg/injection, schedule: Q01DX Z (sc), vehicle: steriod suspending solution) was 91 % of control. The T/C (dose: 250.0 mg/kg/injection, schedule: Q01DX Z (sc), vehicle: steriod suspending solution) was 101 % of control.

In the case of `O=C(Nc1ccc(C2=NCCN2)cc1)c1ccc(C(=O)Nc2ccc(C3=NCCN3)cc2)c(Cl)c1`, the T/C (dose: 2.0 mg/kg/injection, schedule: Q01DX010 (ip), vehicle: other) is reported as 108 % of control and 120 % of control, the T/C (dose: 7.5 mg/kg/injection, schedule: Q01DX Z (ip), vehicle: water) is reported as 107 % of control and the T/C (dose: 8.0 mg/kg/injection, schedule: Q01DX010 (ip), vehicle: other) is reported as 160 % of control and 183 % of control. For the same compound, the T/C (dose: 16.0 mg/kg/injection, schedule: Q01DX010 (ip), vehicle: other) was 232 % of control and 262 % of control, the T/C (dose: 30.0 mg/kg/injection, schedule: Q01DX Z (ip), vehicle: water) was 154 % of control and the T/C (dose: 32.0 mg/kg/injection, schedule: Q01DX010 (ip), vehicle: other) was 120 % of control and 296 % of control.

For `CN(C)[C@@H]1C(=O)C(C(N)=O)=C(O)[C@@]2(O)C(=O)C3=C(O)c4c(O)cccc4C[C@H]3C[C@@H]12`, the T/C (dose: 7.5 mg/kg/injection, schedule: Q01DX010 (ip), vehicle: saline) was 94 % of control, the T/C (dose: 15.0 mg/kg/injection, schedule: Q01DX010 (ip), vehicle: saline) was 105 % of control and 94 % of control and the T/C [12] was 122 % of control and 100 % of control. For the same compound, the T/C [13] was 94 % of control and 100 % of control.

In the case of `CCCCCCCCCCCCNCCCCCCCCCCCC`, the T/C (dose: 7.5 mg/kg/injection, schedule: Q01DX Z (ip), vehicle: carboxymethylcellulose (CMC)) is reported as 108 % of control, the T/C (dose: 15.0 mg/kg/injection, schedule: Q01DX Z (ip), vehicle: carboxymethylcellulose (CMC)) is reported as 106 % of control and the T/C (dose: 30.0 mg/kg/injection, schedule: Q01DX Z (ip), vehicle: carboxymethylcellulose (CMC)) is reported as 110 % of control. For the same compound, the T/C (dose: 60.0 mg/kg/injection, schedule: Q01DX Z (ip), vehicle: carboxymethylcellulose (CMC)) was 116 % of control.

For `N#CCSc1ncnc2nc[nH]c12`, the T/C [14] was 97 % of control, the T/C (dose: 25.0 mg/kg/injection, schedule: Q01DX Z (ip), vehicle: carboxymethylcellulose (CMC)) was 95 % of control and the T/C [12] was 94 % of control. The T/C (dose: 50.0 mg/kg/injection, schedule: Q01DX Z (ip), vehicle: carboxymethylcellulose (CMC)) was 114 % of control and 95 % of control, the T/C [13] was 88 % of control and the T/C (dose: 120.0 mg/kg/injection, schedule: Q01DX010 (ip), vehicle: saline) was 100 % of control.

In the case of `CS(=O)(=O)OCCCl`, the T/C (dose: 3.1 mg/kg/injection, schedule: Q01DX Z (ip), vehicle: carboxymethylcellulose (CMC)) is reported as 88 % of control, the T/C (dose: 6.25 mg/kg/injection, schedule: Q01DX Z (ip), vehicle: carboxymethylcellulose (CMC)) is reported as 89 % of control and the T/C [14] is reported as 86 % of control and 89 % of control. The T/C (dose: 18.8 mg/kg/injection, schedule: Q01DX010 (ip), vehicle: saline) was 88 % of control and 95 % of control, the T/C (dose: 37.5 mg/kg/injection, schedule: Q01DX010 (ip), vehicle: saline) was 90 % of control and 94 % of control and the T/C (dose: 75.0 mg/kg/injection, schedule: Q01DX010 (ip), vehicle: saline) was 90 % of control and 100 % of control. The T/C (dose: 150.0 mg/kg/injection, schedule: Q01DX010 (ip), vehicle: saline) was 105 % of control and 90 % of control.
